Experimental data published in US10377774B2 (JINAN UNIVERSITY, priority 2013, dated 2019).
Where two headings read alike, the source gives them in different places. Marks after values point to notes of the source that are not given here. Each block holds one compound with its values, some of them ahead of it.

Legend:
[1] = system: human breast cancer cell line MDA-MB-231; experiment: MTT cell growth inhibition, MDA-MB-231; type: cell-based; settings: MDA-MB-231, MTT assay, 72 h, read-out: IC50, growth of tumor cell line
HepG2 xenografts = HepG2 xenografts in nude mice; type: in vivo; settings: HepG2 xenograft nude mice; for Anti-tumor rate (%) / Body weight (g) Post-dose / Tumor weight: 1 mg/kg; for Body weight (g) Pre-dose: before dosing
Procedure: (§1) Experimental method: The MDA-MB-231 cells at logarithmic phase were digested and washed twice with PBS. Then, 100 μL cells (1×10^7) were inoculated subcutaneously on the backs of female BALB/nu/nu mice. After tumors grew to 70˜100 mm^3, the mice were divided randomly into saline group (control group), vinca alkaloids groups (VLB, CCRB, CCFN, CCXJ) and vinca alkaloid derivatives groups (JJ-CCJ, BX-CCJ, JJ-CCRB, BX-CCRB, JJ-CCFN, BX-CCFN, JJ-CCXJ and BX-CCXJ), with six mice per group. 1 mg/kg drugs were injected intraperitoneally every two days, meanwhile body weight and tumor sizes were measured. Experiment was ended after 8 times of drug administration, then tumor and organs were stripped. Tumor volumes were measured using the following formula: V=½(ab^2), whereas a refers to the longest diameter and b is the shortest diameter.
(§2) Tumor xenograft models of HepG2, LOVO, K562 and HL-60 cell lines were performed as the method described above.

[2] = system: doxorubicin-resistant hepatocellular carcinoma cell line HepG2/ADM; experiment: MTT cell growth inhibition, HepG2/ADM; type: cell-based, human; settings: MTT assay, 72 h, read-out: IC50, growth of tumor cell line
From the text: (§3) Experimental method: Cell lines (human non-small-cell lung cancer cell line A549, human colon cancer cell line LOVO, human nasopharyngeal carcinoma cell line CNE-2, human liver cancer cell line HepG2, human cervical carcinoma cell line Hela, human breast cancer cell lines MCF-7 and MDA-MB-231, human gastric carcinoma cell line NCI-N87, human prostatic cancer cell lines PC-3 and DU145, human leukemia cell line K562, human melanoma cell line A375, human neuroblastoma cell line SH-SY5H, human promyelocytic leukemia cell line HL-60, 5-FU-resistant human hepatocellular carcinoma cell line BEL-7402/5-Fu, doxorubicin-resistant hepatocellular carcinoma cell line HepG2/ADM, doxorubicin-resistant human breast cancer cell lines MCF-7/ADR) at logarithmic phase were resuspended in RPMI 1640 medium (containing 10% fetal bovine serum, 100 U/mL penicillin-streptomycin). Then, 100 μL of cells (cell concentration was 5×10^5/mL) were seeded into 96 wells plate. After 24 h incubation at 37° C. with 5% CO2, tested compounds were added (the control group without compound) for an additional 72 h incubation. After that, 30 μL of MTT [3-(4,5-Dimethylthiazol-2-yl)-2,5-diphenyltetrazolium bromide] solution (5 mg/mL) was added into each well and incubated for another 4 h at 37° C. and then the formazan crystals were solubilized with 100 μL DMSO. Finally, absorbance of each well was determined at 570 nm by a microplate reader (Thermo).
(§4) The concentration required to inhibit cell growth by 50% (IC50) was calculated from survival curves.

LOVO xenografts = LOVO xenografts in nude mice; type: in vivo; settings: LOVO xenograft nude mice; for Anti-tumor rate (%) / Body weight (g) Post-dose / Tumor weight: 1 mg/kg; for Body weight (g) Pre-dose: before dosing
Procedure: as §1, §2

[3] = system: human melanoma cell line A375; experiment: MTT cell growth inhibition, A375; type: cell-based; settings: A375, MTT assay, 72 h, read-out: IC50, growth of tumor cell line
MDA-MB-231 xenografts = MDA-MB-231 xenografts in nude mice; type: in vivo, BALB/nu/nu mice; settings: MDA-MB-231 xenograft nude mice; for Anti-tumor rate (%) / Body weight (g) Post-dose / Tumor weight: 1 mg/kg i.p. every two days, 8 administrations; for Body weight (g) Pre-dose: before dosing
Procedure: as §1

[4] = system: human breast cancer cell line MCF-7; experiment: MTT cell growth inhibition, MCF-7; type: cell-based; settings: MCF-7, MTT assay, 72 h, read-out: IC50, growth of tumor cell line
From the text: as §3, §4

HL-60 xenografts = HL-60 xenografts in nude mice; type: in vivo; settings: HL-60 xenograft nude mice; for Anti-tumor rate (%) / Body weight (g) Post-dose / Tumor weight: 1 mg/kg; for Body weight (g) Pre-dose: before dosing
Procedure: as §1, §2

[5] = system: human umbilical vein endothelial cells HUVEC; experiment: MTT cytotoxicity on normal cells, HUVEC; settings: read-out: IC50, cytotoxicity on normal cell line; HUVEC, MTT assay
Procedure: (§5) Then, 100 μL of cells (cell concentration was 5×10^5/mL) were seeded into 96 wells plate. After 24 h incubation at 37° C. with 5% CO2, tested compounds were added (the control group without compound) for an additional 72 h incubation. After that, 30 μL of MTT [3-(4,5-Dimethylthiazol-2-yl)-2,5-diphenyltetrazolium bromide] solution (5 mg/mL) was added into each well and incubated for another 4 h at 37° C. and then the formazan crystals were solubilized with 100 μL DMSO. Finally, absorbance of each well was determined at 570 nm by a microplate reader (Thermo).
(§6) The standard curve was drew with compound concentrations as the abscissa and cell growth inhibition rates as the ordinate. The concentration required to inhibit cell growth by 50% (IC50) was calculated from survival curves.
(§7) Experimental method: In vitro cytotoxicities of vinca alkaloids, hydrazinolyzed vinca alkaloids and vinca alkaloid dipeptide derivatives on human normal liver cells LO2 and human umbilical vein endothelial cells HUVEC were detected according to the method of Example 2.

[6] = system: human liver cancer cell line HepG2; experiment: MTT cell growth inhibition, HepG2; type: cell-based; settings: HepG2, MTT assay, 72 h, read-out: IC50, growth of tumor cell line
From the text: as §3, §4

[7] = system: human neuroblastoma cell line SH-SY5H; experiment: MTT cell growth inhibition, SH-SY5H; type: cell-based; settings: MTT assay, 72 h, read-out: IC50, growth of tumor cell line
From the text: as §3, §4

[8] = system: human prostatic cancer cell line DU145; experiment: MTT cell growth inhibition, DU-145; type: cell-based; settings: DU-145, MTT assay, 72 h, read-out: IC50, growth of tumor cell line
From the text: as §3, §4

[9] = system: human colon cancer cell line LOVO; experiment: MTT cell growth inhibition, LOVO; type: cell-based; settings: LOVO (FAPα positive), MTT assay, 72 h, read-out: IC50, growth of tumor cell line
From the text: as §3, §4

[10] = system: human gastric carcinoma cell line NCI-N87; experiment: MTT cell growth inhibition, NCI-N87; type: cell-based; settings: NCI-N87, MTT assay, 72 h, read-out: IC50, growth of tumor cell line
[11] = system: human leukemia cell line K562; experiment: MTT cell growth inhibition, K562; type: cell-based; settings: K562, MTT assay, 72 h, read-out: IC50, growth of tumor cell line
From the text: as §3, §4

[12] = system: human non-small-cell lung cancer cell line A549; experiment: MTT cell growth inhibition, A549; type: cell-based; settings: A549, MTT assay, 72 h, read-out: IC50, growth of tumor cell line
K562 xenografts = K562 xenografts in nude mice; type: in vivo; settings: K562 xenograft nude mice; for Anti-tumor rate (%) / Body weight (g) Post-dose / Tumor weight: 1 mg/kg; for Body weight (g) Pre-dose: before dosing
Procedure: as §1, §2

[13] = system: human promyelocytic leukemia cell line HL-60; experiment: MTT cell growth inhibition, HL-60; type: cell-based; settings: HL-60, MTT assay, 72 h, read-out: IC50, growth of tumor cell line
From the text: as §3, §4

[14] = system: human normal liver cells LO2; experiment: MTT cytotoxicity on normal cells, LO2; settings: read-out: IC50, cytotoxicity on normal cell line; LO2, MTT assay
Kunming mice = experiment: Acute toxicity test; type: in vivo; settings: injected intraperitoneally
Procedure: Experimental method: Kunming mice were purchased from Guangdong Medical Experimental Animal Center, weighing 18-22 g, then randomly divided into several groups with 10 mice in each group. Different concentrations of VLB and vinca alkaloid dipeptide derivatives were injected intraperitoneally. Finally, the median lethal dose (LD50) was calculated according to the surviving animals.
LD50 was measured using the following formula:
LD50 (mg/kg)=The median lethal dose/body weight

[15] = system: human nasopharyngeal carcinoma cell line CNE-2; experiment: MTT cell growth inhibition, CNE-2; type: cell-based; settings: CNE-2, MTT assay, 72 h, read-out: IC50, growth of tumor cell line
[16] = system: human cervical carcinoma cell line Hela; experiment: MTT cell growth inhibition, Hela; type: cell-based; settings: MTT assay, 72 h, read-out: IC50, growth of tumor cell line
From the text: as §3, §4

[17] = system: human prostatic cancer cell line PC-3; experiment: MTT cell growth inhibition, PC-3; type: cell-based; settings: PC-3, MTT assay, 72 h, read-out: IC50, growth of tumor cell line
From the text: as §3, §4

[18] = system: 5-FU-resistant human hepatocellular carcinoma cell line BEL-7402/5-Fu; experiment: MTT cell growth inhibition, BEL-7402/5-Fu; type: cell-based; settings: MTT assay, 72 h, read-out: IC50, growth of tumor cell line
From the text: as §3, §4

[19] = MTT cytotoxicity on normal cells, HUVEC; settings: human, HUVEC (human umbilical vein endothelial cells)
Procedure: as §5, §6, §7

[20] = MTT cytotoxicity on normal cells, LO2; settings: human, LO2 cells (human normal liver cells)
[21] = system: doxorubicin-resistant human breast cancer cell lines MCF-7/ADR; experiment: MTT cell growth inhibition, MCF-7/ADR; type: cell-based; settings: Homo sapiens, NCI/ADR-RES, MTT assay, 72 h, read-out: IC50, growth of tumor cell line
From the text: as §3, §4

[22] = Homo sapiens, Neuroblastoma cell

SMILES: CCC1(O)CC2CN(CCc3c([nH]c4ccccc34)C(C(=O)OC)(c3cc4c(cc3OC)N(C)C3C(O)(C(=O)NNC(=O)C5CCCN5C(=O)CNC(=O)OCc5ccccc5)C(O)C5(CC)C=CCN6CCC43C65)C2)C1 (stereo not drawn) [BX-CCJ, Z-GP-NHNH-Vinblastine]
IC50 [1]: 64.2 ± 4.57 nM
Anti-tumor rate (%) (HepG2 xenografts): 86.67** %
Body weight (g) Post-dose (HepG2 xenografts): 22.1 ± 1.3 g
Tumor weight (HepG2 xenografts): 0.34 ± 0.21 g
Body weight (g) Pre-dose (HepG2 xenografts): 22.0 ± 1.7 g
IC50 [2]: 146 ± 5.47 nM
Anti-tumor rate (%) (LOVO xenografts): 85.02** %
Body weight (g) Post-dose (LOVO xenografts): 24.4 ± 1.6 g
Tumor weight (LOVO xenografts): 0.43 ± 0.38 g
Body weight (g) Pre-dose (LOVO xenografts): 23.8 ± 1.9 g
IC50 [3]: 49.5 ± 4.53 nM
Anti-tumor rate (%) (MDA-MB-231 xenografts): 92.34** %
Body weight (g) Post-dose (MDA-MB-231 xenografts): 21.2 ± 2.1 g
Tumor weight (MDA-MB-231 xenografts): 0.20 ± 0.12 g
Body weight (g) Pre-dose (MDA-MB-231 xenografts): 19.8 ± 1.0 g
IC50 [4]: 108 ± 4.23 nM
Anti-tumor rate (%) (HL-60 xenografts): 81.29** %
Body weight (g) Post-dose (HL-60 xenografts): 20.1 ± 1.0 g
Tumor weight (HL-60 xenografts): 0.41 ± 0.19 g
Body weight (g) Pre-dose (HL-60 xenografts): 18.8 ± 1.1 g
IC50 [5]: 129 ± 1.34 nM
IC50 [6]: 46.8 ± 1.17 nM
IC50 [7]: 59.8 ± 6.42 nM
IC50 [8]: 57.3 ± 2.07 nM
IC50 [9]: 44.8 ± 8.15 nM
IC50 [10]: 103 ± 8.87 nM
IC50 [11]: 11.7 ± 3.04 nM
IC50 [12]: 62.1 ± 3.87 nM
Anti-tumor rate (%) (K562 xenografts): 76.79** %
Body weight (g) Post-dose (K562 xenografts): 23.1 ± 1.4 g
Tumor weight (K562 xenografts): 0.39 ± 0.27 g
Body weight (g) Pre-dose (K562 xenografts): 22.3 ± 1.0 g
IC50 [13]: 85.5 ± 9.57 nM
IC50 [14]: 96.3 ± 1.11 nM
LD50 (median lethal dose) (Kunming mice): 10 mg/kg
IC50 [15]: 52.7 ± 3.01 nM
IC50 [16]: 56.8 ± 3.08 nM
IC50 [17]: 71.1 ± 1.97 nM
IC50 [18]: 179 ± 8.87 nM

SMILES: CC[C@]1(O)C[C@@H]2CN(CCc3c([nH]c4ccccc34)[C@@](C(=O)OC)(c3cc4c(cc3OC)N(C)[C@H]3[C@@](O)(C(=O)NN)[C@H](O)[C@]5(CC)C=CCN6CC[C@]43[C@@H]65)C2)C1 [JJ-CCJ, hydrazinolyzed vinblastine]
IC50 ([1]; Homo sapiens): 5.99 ± 3.29 nM
Anti-tumor rate (%) (HepG2 xenografts): 77.65** %
Body weight (g) Post-dose (HepG2 xenografts): 16.1 ± 0.3 g
Tumor weight (HepG2 xenografts): 0.57 ± 0.7 g
Body weight (g) Pre-dose (HepG2 xenografts): 21.7 ± 1.2 g
IC50 ([2]; Homo sapiens): 43.9 ± 3.77 nM
Anti-tumor rate (%) (LOVO xenografts): 77.71** %
Body weight (g) Post-dose (LOVO xenografts): 17.3 ± 1.2 g
Tumor weight (LOVO xenografts): 0.64 ± 0.21 g
Body weight (g) Pre-dose (LOVO xenografts): 22.8 ± 1.7 g
IC50 ([3]; Homo sapiens, A-375): 4.56 ± 0.57 nM
Anti-tumor rate (%) (MDA-MB-231 xenografts): 87.74** %
Body weight (g) Post-dose (MDA-MB-231 xenografts): 16.4 ± 1.7 g
Tumor weight (MDA-MB-231 xenografts): 0.32 ± 0.03 g
Body weight (g) Pre-dose (MDA-MB-231 xenografts): 20.3 ± 0.7 g
IC50 ([4]; Homo sapiens, MCF7): 23.9 ± 3.07 nM
Anti-tumor rate (%) (HL-60 xenografts): 69.23** %
Body weight (g) Post-dose (HL-60 xenografts): 16.1 ± 0.4 g
Tumor weight (HL-60 xenografts): 0.64 ± 0.17 g
Body weight (g) Pre-dose (HL-60 xenografts): 20.1 ± 1.7 g
IC50 at 72 h [19]: 36.1 ± 1 nM
IC50 ([6]; Homo sapiens): 12.4 ± 0.72 nM
IC50 [7, 22]: 6.24 ± 1.31 nM
IC50 ([8]; Homo sapiens): 5.33 ± 0.6 nM
IC50 ([9]; Homo sapiens): 32.9 ± 6.39 nM
IC50 ([10]; Homo sapiens): 17.4 ± 2.2 nM
IC50 ([11]; Homo sapiens): 3.67 ± 0.79 nM
IC50 ([12]; Homo sapiens): 6.43 ± 2.42 nM
Anti-tumor rate (%) (K562 xenografts): 68.45** %
Body weight (g) Post-dose (K562 xenografts): 16.5 ± 0.8 g
Tumor weight (K562 xenografts): 0.53 ± 0.19 g
Body weight (g) Pre-dose (K562 xenografts): 22.1 ± 1.9 g
IC50 ([13]; Homo sapiens): 8.65 ± 1.28 nM
IC50 at 72 h [20]: 20.1 ± 0.97 nM
IC50 ([15]; Homo sapiens): 7.14 ± 0.16 nM
IC50 ([16]; Homo sapiens): 14.5 ± 1.81 nM
IC50 ([17]; Homo sapiens): 6.27 ± 0.61 nM
IC50 ([18]; Homo sapiens, Bel7402/5-FU): 80.3 ± 7.53 nM

IC50 ([1]; Homo sapiens): 1.03 ± 0.22 nM
IC50 ([2]; Homo sapiens): 7.78 ± 2.01 nM
IC50 ([3]; Homo sapiens, A-375): 0.95 ± 0.16 nM
IC50 ([4]; Homo sapiens, MCF7): 2.74 ± 0.36 nM
IC50 [21]: 9.67 ± 2.2 nM
IC50 ([6]; Homo sapiens): 0.97 ± 0.12 nM
IC50 [7, 22]: 1.34 ± 0.21 nM
IC50 ([8]; Homo sapiens): 1.17 ± 0.31 nM
IC50 ([9]; Homo sapiens): 0.74 ± 0.09 nM
IC50 ([10]; Homo sapiens): 0.87 ± 0.26 nM
IC50 ([11]; Homo sapiens): 1.07 ± 0.33 nM
IC50 ([12]; Homo sapiens): 1.32 ± 0.03 nM
IC50 ([13]; Homo sapiens): 1.81 ± 0.17 nM
IC50 ([15]; Homo sapiens): 1.51 ± 0.76 nM
IC50 ([16]; Homo sapiens): 2.33 ± 0.77 nM
IC50 ([17]; Homo sapiens): 2.93 ± 0.37 nM
IC50 ([18]; Homo sapiens, Bel7402/5-FU): 22.7 ± 3.37 nM
SMILES: CC[C@]1(O)C[C@H]2CN(CCc3c([nH]c4ccccc34)[C@@](C(=O)OC)(c3cc4c(cc3OC)N(C=O)[C@H]3[C@@](O)(C(=O)OC)[C@H](OC(C)=O)[C@]5(CC)C=CCN6CC[C@]43[C@@H]65)C2)C1 [Vincristine, reference compound]
IC50 at 72 h [19]: 0.42 ± 0.09 nM
IC50 at 72 h [20]: 0.21 ± 0.05 nM
